According to patent publication US20080187608A1, “ENRICHED FRACTIONS FROM CLARY SAGE FOR THE TREATMENT OF CANCER, CARDIOVASCULAR AND INFLAMMATORY DISEASES” (SAVIPU PHARMACEUTICALS, priority 2007, published 2008):

Assays:
[1] = test system: NAD[P]H:(quinone-acceptor) oxidoreductase (QR) in mouse hepatoma Hepa 1c1c7 cells; experiment: Activation of quinone reductase (QR) in Hepa 1c1c7 cells, menadione-coupled tetrazolium reduction; format: cell-based
Method: Activation of Quinone reductase (NAD[P]H:(quinone-acceptor) oxidoreductase (QR). We studied the effects of SP001P and SP 2010 on the activation of QR, a phase 2 enzyme in mouse hepatoma cells Hepa 1c1c7 (ATCC) at lower concentrations. QR protects cells against quinones and highly reactive semiquinones by catalyzing an obligate two-electron reduction of quinones to hydroquinones. We have developed a 96-well plate assay to assess QR activity in these cell lines. QR activity was measured by a menadione-coupled reduction of tetrazolium dye as modified from Prochaska and Santamari. Cells (10^4 per well) were grown for 24 h and then exposed to serial dilutions of inducers for 24 h. Protein concentrations in a corresponding plate were determined by methylene blue staining as described earlier. SP001P and SP 2010 stimulated NAD[P]H:(quinone-acceptor) oxidoreductase (QR), a phase 2 enzyme in a dose dependent manner in mouse hepatoma Hepa 1c1c7 cells at concentrations known to inhibit B[a]P-induced transformation of RTE cells, (FIG. 2). The concentration required to double the specific activity of QR (CD value) for SP001P and SP 2010 were 24 ng/ml and 49 nM, respectively.

[2] = test system: NFκB transcription factor in A549/NFκB-luc reporter cell line; experiment: NF-κB transactivation after rhTNFα in A549/NFκB-luc reporter cell line; format: cell-based; details: rhTNFα activation
Description: (§1) Inhibition of activation of NF-kB by SP001P and SP 2010. We evaluated the effects of SP001P and SP 2010 on the activity of NFκB transcription factor after activation with rhTNFα in a reporter cell line A549/NFκB-luc designed by Panomics according to the manufacturer's instructions. […] It is interesting to note that although SP001P has only 20% of SP 2010 yet it produced a dose response curve that was very similar with SP 2010 (FIG. 4A). […] We studied the effects of SP 2010 on TNF-α-dependent activation of NF-κB binding to KB site in nuclear extracts of HeLa cells. To measure the binding of the activated NF-κB to its consensus KB sequence, nuclear extracts from HeLa cells treated with SP 2010 and stimulated with TNFα were prepared by the Panomics Nuclear Extraction kit. Nuclear extracts were diluted to 2 μg/μl and 10 μl of the extract was used to quantify transcription factor activation, specifically that of NF-κB p50 (ELISA, Panomics).

[3] = Oxygen Radical Absorbance Capacity (ORAC) assay
Description: Antioxidant Capability of SP001P and SP 2010. The Oxygen Radical Absorbance Capacity (ORAC) assay depends on the free radical damage to a fluorescent probe, such as fluorescein, to result in a downward change of fluorescent intensity. The presence of antioxidants results in an inhibition in the free radical damage to the fluorescent compound. Reactions containing antioxidants and blanks (solvent) are run in parallel using equivalent amounts of a ROS generator and fluorescent probe. The area under the curve (AUC) from the experimental sample is calculated. Results from different samples are compared with Trolox®, (6-hydroxy-2,5,7,8-tetrametmethylchroman-2-carboxylic acid) a water soluble vitamin E analog and ORAC results are expressed as Trolox® equivalents. ORAC values are calculated using the regression equation between Trolox concentration and the net AUC and are expressed as micromole Trolox equivalents per gram of sample. SP001P and SP 2010 are potent antioxidants with values of 357 and 441 micromole Trolox equivalents per gram, respectively.

[4] = test system: NF-κB p50 binding to KB site in HeLa cells; experiment: TNF-α-dependent NF-κB binding to κB site in nuclear extracts of HeLa cells (NF-κB p50 ELISA); format: cell-based; details: HeLa cells stimulated with TNFα
Description: as §1

## Cc1coc2c1C(=O)C(=O)c1c-2ccc2c1CCCC2(C)C [SP 2010, Tanshinone IIA]
[1]; 24 h exposure
  concentration required to double the specific activity of QR (CD value): 49 nM
[1]; FIG. 2
  stimulation of QR: stimulated
[2]
  transactivation of NF-κB: dose-dependent decrease
[3]
  ORAC value: 441 micromole Trolox equivalents per gram
[4]
  NF-κB binding to KB site: dose-dependent decrease
